# Measured values published in PubChem BioAssay (NCI).
#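 Interpolation was linear, between the two tested concentrations surrounding the appropriate level; five concentrations were tested over 48 hours in 96-well plates. At the TGI there is no net growth.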
# Experiments:
# Assay in all cases: NCI anticancer screen, dose series, 48 h
# OVCAR-5 ovarian = test system: OVCAR-5 ovarian
# T-47D breast = test system: T-47D breast
# HOP-92 NSCLC = test system: HOP-92 NSCLC
# MDA-MB-435 = test system: MDA-MB-435
# HCT-116 colon = test system: HCT-116 colon
# SNB-75 CNS = test system: SNB-75 CNS
# SK-MEL-2 melanoma = test system: SK-MEL-2 melanoma
# SF-539 CNS = test system: SF-539 CNS
# ACHN renal = test system: ACHN renal
# EKVX NSCLC = test system: EKVX NSCLC
# COLO 205 colon = test system: COLO 205 colon
# RXF 393 renal = test system: RXF 393 renal
# DU-145 prostate = test system: DU-145 prostate
# SW-620 colon = test system: SW-620 colon
# NCI-H522 lung = test system: NCI-H522 lung
# SF-295 CNS = test system: SF-295 CNS
# MDA-MB-231 breast = test system: MDA-MB-231 breast
# A498 renal = test system: A498 renal
# HS 578T breast = test system: HS 578T breast
# RPMI-8226 leukemia = test system: RPMI-8226 leukemia
SMILES,TGI (OVCAR-5 ovarian),TGI (T-47D breast),TGI (HOP-92 NSCLC),TGI (MDA-MB-435),TGI (HCT-116 colon),TGI (SNB-75 CNS),TGI (SK-MEL-2 melanoma),TGI (SF-539 CNS),TGI (ACHN renal),TGI (EKVX NSCLC),TGI (COLO 205 colon),TGI (RXF 393 renal),TGI (DU-145 prostate),TGI (SW-620 colon),TGI (NCI-H522 lung),TGI (SF-295 CNS),TGI (MDA-MB-231 breast),TGI (A498 renal),TGI (HS 578T breast),TGI (RPMI-8226 leukemia)
Cc1c(O)c(OC2OC(CO)C(O)C(O)C2O)cc2c1CC[C@@H]1C2(C)C(=O)C[C@]2(C)[C@@H]([C@@](C)(O)C3CCC(C)(C)O3)[C@H](O)C[C@@]12C (some centres not stated),> 100 µM,> 100 µM,> 100 µM,> 100 µM,> 100 µM,> 100 µM,> 100 µM,> 100 µM,> 100 µM,> 100 µM,> 100 µM,> 100 µM,> 100 µM,> 100 µM,> 100 µM,> 100 µM,> 100 µM,> 100 µM,,
CCOC(=O)/C(=C\NC(C)(C)C)c1nc2ccccc2[nH]1,55.9 µM,,56.8 µM,38.6 µM,95.2 µM,68.7 µM,,39.4 µM,40.9 µM,34.5 µM,33.7 µM,59.6 µM,> 100 µM,93 µM,45.9 µM,41.2 µM,,57.3 µM,45.8 µM,39.2 µM
C=C1[C@H]2O[C@H]2[C@@H](OC(C)=O)[C@@]2(C)[C@@H](OC(C)=O)C[C@@H](OC(=O)CCC)[C@@](C)(O)[C@@H]2[C@@H](OC(C)=O)[C@]2(O)[C@@H](C)C(=O)O[C@H]2[C@H]1Cl,> 100 µM,> 100 µM,> 100 µM,> 100 µM,> 100 µM,> 100 µM,> 100 µM,> 100 µM,> 100 µM,> 100 µM,> 100 µM,> 100 µM,> 100 µM,> 100 µM,> 100 µM,> 100 µM,> 100 µM,> 100 µM,,> 100 µM
C[C@@H]1[C@H](O)CC2=C(CC[C@@H](O)C2(C)C)[C@@]1(CO)CCc1ccoc1,> 50 µM,,> 50 µM,,> 50 µM,> 50 µM,> 50 µM,> 50 µM,> 50 µM,> 50 µM,> 50 µM,> 50 µM,,> 50 µM,,> 50 µM,> 50 µM,> 50 µM,> 50 µM,
CC(C)(C)C1CCC2c3c([nH]c4ncccc34)C3C(=O)N(c4ccccc4)C(=O)C3C2C1 (configuration not stated),> 100 µM,,> 100 µM,,> 100 µM,> 100 µM,> 100 µM,> 100 µM,> 100 µM,> 100 µM,> 100 µM,> 100 µM,,> 100 µM,> 100 µM,> 100 µM,,,,> 100 µM
O=C(O)[C@@H]1OCCOCCO[C@@H](C(=O)O)[C@H](C(=O)O)OCCOCCO[C@H]1C(=O)O,> 100 µM,,> 100 µM,,> 100 µM,> 100 µM,> 100 µM,> 100 µM,> 100 µM,> 100 µM,> 100 µM,> 24.9 µM,,> 90.1 µM,> 100 µM,> 100 µM,,> 100 µM,,> 60.9 µM
C/C(=N\NC(=O)C[N+](C)(C)C)c1sc(-c2cccnc2)nc1C,> 100 µM,,> 100 µM,,> 100 µM,> 100 µM,> 100 µM,> 100 µM,> 100 µM,> 100 µM,> 100 µM,> 100 µM,,> 100 µM,> 100 µM,> 100 µM,,,,> 100 µM
[N-]=[N+]=NC1(c2ccccc2)C(=O)C(Cl)=C(c2ccccc2)N(c2ccccc2)C1=O (configuration not stated),> 100 µM,,> 100 µM,,> 100 µM,> 100 µM,> 100 µM,> 100 µM,> 100 µM,> 100 µM,> 100 µM,,,> 100 µM,> 100 µM,> 100 µM,,> 100 µM,,
O=C1N2Cc3c4ccc5c3CN3C(=O)N6Cc7c(ccc(c7CN1C6(c1ccccc1)C23c1ccccc1)OCCOCCOc1cc(Br)c(Br)cc1OCCOCCO4)OCCOCCOc1cc(Br)c(Br)cc1OCCOCCO5 (configuration not stated),,,90 µM,,> 100 µM,> 100 µM,> 100 µM,37.9 µM,> 100 µM,> 100 µM,,> 100 µM,,28.3 µM,> 100 µM,,,,,> 100 µM
CC(=O)Nc1ccc2c3c(cc(O)c2c1)N(C(=O)CCCCC(=O)N1CC(CCl)c2c1cc(O)c1cc(NC(C)=O)ccc21)CC3CCl (configuration not stated),8.54 µM,0.0973 µM,,0.71 µM,> 100 µM,0.297 µM,0.316 µM,1.34 µM,1.49 µM,12.8 µM,0.376 µM,0.41 µM,0.209 µM,> 100 µM,0.545 µM,> 24.1 µM,0.733 µM,0.39 µM,,0.635 µM
O=C1C2=Cc3ccccc3OC2(O)Oc2ccccc21 (configuration not stated),> 100 µM,> 100 µM,> 100 µM,> 100 µM,> 100 µM,> 100 µM,> 100 µM,> 100 µM,,> 100 µM,> 100 µM,> 100 µM,> 100 µM,> 100 µM,,> 100 µM,> 100 µM,> 100 µM,,> 100 µM
CCC(=O)NI1OC(=O)c2ccccc21,> 100 µM,> 100 µM,> 100 µM,> 100 µM,> 100 µM,> 100 µM,> 100 µM,> 100 µM,> 100 µM,> 100 µM,> 100 µM,> 100 µM,> 100 µM,> 100 µM,48.8 µM,> 100 µM,> 100 µM,> 100 µM,,> 100 µM
CCOC(=O)C(C)Sc1nnc(COc2ccc(Cl)cc2)n1-c1ccccc1 (configuration not stated),94.8 µM,,44 µM,,36.5 µM,> 100 µM,28.4 µM,36.9 µM,31.6 µM,83.5 µM,33.2 µM,41.7 µM,,27.2 µM,5.16 µM,85.4 µM,,,,45.7 µM
O=C(Cc1nc2sc3c(c2c(=O)[nH]1)CCCC3)Nc1ccccc1,> 100 µM,,> 100 µM,,> 100 µM,53.6 µM,> 100 µM,> 100 µM,> 100 µM,> 100 µM,> 100 µM,69.9 µM,,> 100 µM,> 100 µM,> 100 µM,,> 100 µM,,> 100 µM
CCO/S(=N/S(=O)(=O)c1ccccc1)c1ccccc1[N+](=O)[O-] (configuration not stated),> 100 µM,,,,,> 100 µM,> 100 µM,> 100 µM,,> 100 µM,> 100 µM,,,> 100 µM,> 100 µM,> 100 µM,,,,> 100 µM
N#COc1ccc(Oc2ccccc2)cc1,> 100 µM,,> 100 µM,,> 100 µM,> 100 µM,> 100 µM,92.4 µM,> 100 µM,> 100 µM,> 100 µM,> 100 µM,,,> 100 µM,> 100 µM,,> 100 µM,,83.5 µM
O=C1c2c(O)cc(O)cc2C(C2OC(CO)C(O)C(O)C2O)c2cc(CO)cc(O)c21 (configuration not stated),> 100 µM,> 100 µM,> 100 µM,> 100 µM,> 100 µM,54.9 µM,,,> 100 µM,> 100 µM,> 100 µM,,> 100 µM,> 100 µM,,> 100 µM,> 100 µM,> 100 µM,,> 100 µM
O=c1[nH]c2cc([N+](=O)[O-])ccc2nc1/C(=N/Nc1ccccc1)C(O)c1ccco1 (configuration not stated),,,,,> 100 µM,> 100 µM,> 100 µM,> 100 µM,> 100 µM,> 100 µM,> 100 µM,> 100 µM,,> 100 µM,> 100 µM,> 100 µM,,> 100 µM,,> 100 µM
COc1ccc2c(c1)CC1COc3cc(OC)ccc3C1O2 (configuration not stated),> 100 µM,> 100 µM,> 100 µM,> 100 µM,> 100 µM,,> 100 µM,> 100 µM,,> 100 µM,> 100 µM,,> 100 µM,> 100 µM,> 100 µM,> 100 µM,> 100 µM,> 100 µM,,> 100 µM
CN(C)C1(N(C)C)Oc2c(c(=O)n(C)c(=O)n2C)C(c2ccc(C(F)(F)F)cc2)C1(F)F (configuration not stated),> 100 µM,> 100 µM,> 100 µM,> 100 µM,> 100 µM,> 100 µM,> 100 µM,,> 100 µM,> 100 µM,> 100 µM,> 100 µM,> 100 µM,> 100 µM,,> 100 µM,> 100 µM,> 100 µM,,> 100 µM
CC(=O)OC1OC(c2ccoc2)C[C@@]12C1CCC3O[C@]3(C)[C@]1(C)[C@H](OC(C)=O)[C@H](OC(C)=O)[C@H]2C (some centres not stated),> 37.5 µM,,> 37.5 µM,,> 37.5 µM,,> 37.5 µM,> 37.5 µM,> 37.5 µM,> 37.5 µM,> 37.5 µM,> 37.5 µM,,> 37.5 µM,,> 37.5 µM,> 37.5 µM,> 37.5 µM,> 37.5 µM,
Cc1csc(NNC(N)=O)n1,> 100 µM,,> 100 µM,> 100 µM,> 100 µM,> 100 µM,> 100 µM,> 100 µM,> 100 µM,> 100 µM,> 100 µM,> 100 µM,> 100 µM,> 100 µM,> 100 µM,> 100 µM,> 100 µM,,> 100 µM,
O=C(c1ccco1)N(C(=S)N1CCN(c2ccccc2)CC1)C1CCCCC1,> 100 µM,,> 100 µM,,> 100 µM,> 100 µM,> 100 µM,> 100 µM,> 100 µM,,> 100 µM,> 100 µM,,> 100 µM,> 100 µM,> 100 µM,,,,> 100 µM
O/N=C(/C(Cl)=C(Cl)Cl)C(Cl)Cl,49.4 µM,,,33.1 µM,34.8 µM,43.7 µM,,44.9 µM,32 µM,> 100 µM,44.2 µM,30.5 µM,97.4 µM,38.8 µM,,35.8 µM,40 µM,> 100 µM,61.3 µM,50.2 µM
COc1cc2c(oc(=O)c3c4occc4cc(OC)c23)c2cccc(OCc3ccccc3)c12,> 100 µM,,> 100 µM,,> 100 µM,> 100 µM,> 100 µM,> 100 µM,> 100 µM,> 100 µM,> 100 µM,> 100 µM,,> 100 µM,> 100 µM,> 100 µM,,83.4 µM,,> 100 µM
Cc1ccc(/C=C/C(=N/NC(=O)N/N=C(/C=C/c2ccc(C)cc2)C(C)C)C(C)C)cc1,> 10 µM,,> 10 µM,> 10 µM,> 10 µM,,> 10 µM,,> 10 µM,> 10 µM,> 10 µM,> 10 µM,> 10 µM,> 10 µM,> 10 µM,> 10 µM,> 10 µM,,,> 10 µM
Cc1c(O)c(OC2OC(CO)C(O)C(O)C2O)cc2c1C=C[C@@H]1[C@@]2(C)C(=O)C[C@]2(C)[C@@H]([C@@](C)(O)C(O)/C=C/C(C)(C)O)[C@H](O)C[C@@]12C (some centres not stated),> 100 µM,> 100 µM,> 100 µM,> 100 µM,> 100 µM,> 100 µM,> 100 µM,> 100 µM,> 100 µM,> 100 µM,> 100 µM,> 100 µM,> 100 µM,> 100 µM,> 100 µM,> 100 µM,> 100 µM,> 100 µM,,
